Like-named read-outs stand apart in the source and are kept apart here.
Tests used:
[1] = Stability of analytes in rat plasma QC samples under storage conditions; format: physicochemical; settings: n = 6; for Stability during 24 h at 4°C, RE: post-treatment storage in autosampler; for −80°C for 30 days, RE / Three freeze–thaw cycles, RE: rat plasma; for −80°C for 30 days, RE: long-term; for Three freeze–thaw cycles, RE: −80°C to room temperature
Description: The stability of QC samples in six replicates at three concentrations (low, medium, and high levels) was analyzed under different storage conditions: the post-treatment stability was analyzed after storage in an autosampler (4°C) for 24 h. Freeze–thaw stability was investigated after three freeze–thaw cycles (−80°C to room temperature as one cycle). Long-term stability was assessed by analyzing QC samples kept at −80°C for 30 days. The concentrations of the analytes in the plasma samples and the QC samples were calculated by the calibration standard curve prepared each day. The stabilities of analytes were acceptable when the accuracy (RE, %) and precision (RSD, %) of all QC samples in all storage conditions were within ±15% compared to nominal concentrations.

[2] = Pharmacokinetic study in rats after intravenous administration of cinobufacini injection (UPLC-MS/MS of plasma); format: in vivo, rat
Description: (§1) Male Sprague–Dawley rats (weighing 200–220 g) of SPF grade were offered by Sippr/BK laboratory Animal, Corp., Ltd. (Shanghai, China) and fed in the Laboratory Animal Center of the Shanghai University of Traditional Chinese Medicine. All the rats were kept under environmentally controlled conditions with constant temperature (22–24°C) and humidity (60–65%). The animal experiment program in the present research was approved by the Animal Committee of the Shanghai University of Traditional Chinese Medicine (PZSHUTCM210618012).
(§2) An Agilent 1290 liquid chromatographic system includes a G4220A quaternary pump, a G1326C column incubator, a G4226A automatic sampler, and a G1330B degasser. The column temperature was set to 35°C. A measure of 5 µL of samples were separated in an Agilent SB-C18 column (2.1 mm ×50 mm, 1.8 μm) and eluted at 0.3 ml/min, followed by gradient elution with water (0.1% V/V formic acid) (A) and acetonitrile (B) (0–1 min, 20%–20% B; 1–3.5 min, 20%–80% B; 4–4.1 min, 80%-20% B; 4.1–6 min, 20% B). The total run time was 6 minutes.
(§3) An Agilent 1290 Infinity series UPLC system was combined with an Agilent 6460 series triple quadrupole mass spectrometer (Agilent Technologies, Santa Clara, CA, United States) to quantify all 13 analytes in an ESI-positive ionization mode. Quantitative analysis was performed in an MRM mode. The mass spectrum conditions were as follows: capillary voltage, 4000V; drying gas (N2), gas flow rate: 10 L/min; sprayer, 30 psi; gas temperature 350°C; The delta EMV (+) 200 V; collision gas (N2); dwell time, 25 ms. Agilent’s MassHunter Workstation software was used for data collection, peak area calculation, and quantitative analysis.
(§4) A measure of 50 µL of the plasma sample was mixed with 10 µL of the internal standard solution (345 ng/ml) in a 1.5-ml centrifuge tube and vortexed for 5 min. The samples were extracted by 500 µL of ethyl acetate for 5 min and centrifuged at 4°C for 10 min (18000 rpm). All the supernatants were collected into another 1.5-ml centrifuge tube, dried under a gentle stream of nitrogen at 37°C, and then added with 50 µL of 80% methanol for resolution. The resolution samples were centrifuged at 4°C for 10 min (18000 rpm), and 5 µL supernatant was extracted and injected for analysis.
(§5) Twenty-four male Sprague–Dawley rats (weigh 200–220 g) were divided into four groups with six rats in each group randomly, including three capsule groups at three different doses and one injection group. In the instructions for cinobufacini capsule and injection, the clinical dosage for adults is 2 g per 70 kg orally and 20 ml per 70 kg intravenously, converting to rat doses of 180 mg/kg and 1.8 ml/kg, respectively.
(§6) In the pre-experiments, we compared cinobufacini capsule of 180 mg/kg (one-time clinical dose) and 900 mg/kg (five times of clinical dose) and Cinobufacini injection of 1.8 ml/kg, but concentrations of some compounds in plasma were too low and difficult to be quantified. […] The experimental rats were led to fast the night and were free to get access to water for 12 h before the pharmacokinetic study. After administration, blood samples (approximately 150 μL) of rats were collected via retro-orbital sinus into heparinized centrifuge tubes at 0.05, 0.083, 0.25, 0.5, 0.75, 1, 2, 4, 6, 8, and 10 h. After centrifugation at 5,000 rpm for 10 min, the plasma was transferred to 1.5-ml polypropylene tubes and stored at −80°C until UPLC-MS/MS analysis.
(§7) GraphPad Prism software (version 8.0.2) was used to draw the mean plasma concentration–time curves of all analytes. The pharmacokinetic parameters were calculated by DAS 3.2.8 software. Meanwhile, the pharmacokinetic data on rats were presented as mean ± standard deviation (SD). Differences of pharmacokinetic parameters between groups were analyzed by the t-test using SPSS software (version 26.0). Differences were considered significant statistically when the p-values were <0.05 and very significant statistically when the p-values were <0.01.

[3] = Pharmacokinetic study in rats after oral administration of cinobufacini capsule (UPLC-MS/MS of plasma); format: in vivo, rat; settings: male, Sprague-Dawley, in vivo, rat plasma, mean ± SD, n = 6; for CL/F: read-out: CLz/F (converted); for MRT last: read-out: MRT0-t; for MRT inf: read-out: MRT0-∞; for half-life: read-out: T1/2z (converted); for Vd/F: read-out: Vz/F
Description: as §1, §2, §3, §4, §5, §6, §7

[4] = high QC level (249.58–250.28 ng/ml)
[5] = medium QC level (49.92–50.06 ng/ml)
[6] = oral cinobufacini capsule 0.9 g/kg (low)
[7] = oral cinobufacini capsule 1.8 g/kg (medium)
[8] = oral cinobufacini capsule 3.6 g/kg (high)

Compound	Stability during 24 h at 4°C, RE [1, 4]	Stability during 24 h at 4°C, RE ([1]; low QC level (4.99–5.00 ng/ml))	Stability during 24 h at 4°C, RE [1, 5]	−80°C for 30 days, RE [1, 4]	−80°C for 30 days, RE ([1]; low QC level (4.99–5.00 ng/ml))	−80°C for 30 days, RE [1, 5]	Three freeze–thaw cycles, RE [1, 4]	Three freeze–thaw cycles, RE ([1]; low QC level (4.99–5.00 ng/ml))	Three freeze–thaw cycles, RE [1, 5]	AUC(0-inf) [3, 6]	AUC(0-t) [3, 6]	Cmax [3, 6]	Tmax [3, 6]	CL/F [3, 6]	MRT last [3, 6]	MRT inf [3, 6]	half-life [3, 6]	Vd/F [3, 6]	AUC(0-inf) [3, 7]	AUC(0-t) [3, 7]	also measured
C[C@]12CC[C@H](O)C[C@H]1CC[C@@H]1[C@@H]2[C@H](O)C(=O)[C@]2(C)[C@@H](c3ccc(=O)oc3)CC[C@]12O [ABG, arenobufagin]	−4.1%	7.4%	−5.3%	2.3%	7.1%	8.3%	0.7%	2.5%	3.3%	15.5 ± 4.73 ng·h/mL	15.5 ± 4.73 ng·h/mL	13.8 ± 6.4 ng/mL	27 ± 16.2 min	109 mL/min/kg	86.4 ± 34.8 min	88.2 ± 36 min	49.2 ± 39.6 min	8.01 ± 5.68 L/kg	45.9 ± 13.1 ng·h/mL	44.1 ± 10.6 ng·h/mL	concentrations in most rat plasma samples relative to LLOQ ([2]; after intravenous administration of cinobufacini injection, pharmacokinetic parameters could not be calculated): far below the LLOQs; detection in rat plasma ([2]; cinobufacini injection group, intravenous): could be detected; Cmax [3, 7]: 36.7 ± 13.1 ng/mL; Tmax [3, 7]: 19.2 ± 7.2 min; CL/F [3, 7]: 71.2 mL/min/kg; MRT last [3, 7]: 89.4 ± 61.8 min; MRT inf [3, 7]: 104 ± 77.4 min; half-life [3, 7]: 38.4 ± 9.6 min; Vd/F [3, 7]: 4.2 ± 1.25 L/kg; AUC(0-inf) [3, 8]: 87.6 ± 27.8 ng·h/mL; AUC(0-t) [3, 8]: 87.3 ± 27.4 ng·h/mL; Cmax [3, 8]: 77.9 ± 24.2 ng/mL; Tmax [3, 8]: 19.2 ± 7.2 min; CL/F [3, 8]: 77.5 mL/min/kg; MRT last [3, 8]: 72 ± 15.6 min; MRT inf [3, 8]: 73.8 ± 18.6 min; half-life [3, 8]: 53.4 ± 38.4 min; Vd/F [3, 8]: 5.66 ± 3.45 L/kg
C[C@]12CC[C@H]3[C@@H](CC[C@]4(O)C[C@@H](O)CC[C@]34C=O)[C@@]1(O)CC[C@@H]2c1ccc(=O)oc1 [HBG, hellebrigenin]	0.8%	10.2%	−4.7%	−1.3%	−5.0%	8.9%	1.5%	9.3%	−2.1%	4.21 ± 2.23 ng·h/mL	3.97 ± 1.73 ng·h/mL	2.47 ± 1.38 ng/mL	56.4 ± 45 min	237 mL/min/kg	215 ± 97.8 min	229 ± 119 min	61.2 ± 36 min	14.2 ± 3.88 L/kg	13.8 ± 5.4 ng·h/mL	13.7 ± 4.3 ng·h/mL	Cmax [3, 7]: 8.36 ± 2.92 ng/mL; Tmax [3, 7]: 40.8 ± 21 min; CL/F [3, 7]: 110 mL/min/kg; MRT last [3, 7]: 137 ± 75.6 min; MRT inf [3, 7]: 153 ± 91.8 min; half-life [3, 7]: 80.4 ± 65.4 min; Vd/F [3, 7]: 11.1 ± 5.04 L/kg; AUC(0-inf) [3, 8]: 31.1 ± 11.4 ng·h/mL; AUC(0-t) [3, 8]: 31.1 ± 11.4 ng·h/mL; Cmax [3, 8]: 18.2 ± 5.84 ng/mL; Tmax [3, 8]: 23.4 ± 12 min; CL/F [3, 8]: 118 mL/min/kg; MRT last [3, 8]: 128 ± 49.8 min; MRT inf [3, 8]: 128 ± 49.2 min; half-life [3, 8]: 37.8 ± 6 min; Vd/F [3, 8]: 6.35 ± 2.55 L/kg
C[C@]12CC[C@H](O)C[C@@]1(O)CC[C@@H]1[C@@H]2CC[C@]2(C)[C@@H](c3ccc(=O)oc3)CC[C@]12O [TCG, telocinobufagin]	−4.7%	−0.3%	−4.2%	−2.1%	0.9%	3.8%	-6.6%	5.8%	0.0%	24.5 ± 10.3 ng·h/mL	24.5 ± 10.3 ng·h/mL	35.2 ± 21 ng/mL	21.6 ± 12 min	128 mL/min/kg	38.4 ± 3.6 min	38.4 ± 3.6 min	9.6 ± 0.6 min	1.75 ± 0.6 L/kg	89.9 ± 24.1 ng·h/mL	89.7 ± 23.8 ng·h/mL	Cmax [3, 7]: 109 ± 41.3 ng/mL; Tmax [3, 7]: 17.4 ± 5.4 min; CL/F [3, 7]: 66.2 mL/min/kg; MRT last [3, 7]: 43.8 ± 6.6 min; MRT inf [3, 7]: 44.4 ± 6.6 min; half-life [3, 7]: 12.6 ± 6.6 min; Vd/F [3, 7]: 1.13 ± 0.37 L/kg; AUC(0-inf) [3, 8]: 217 ± 82.4 ng·h/mL; AUC(0-t) [3, 8]: 217 ± 82.4 ng·h/mL; Cmax [3, 8]: 253 ± 83.8 ng/mL; Tmax [3, 8]: 19.2 ± 7.2 min; CL/F [3, 8]: 60.3 mL/min/kg; MRT last [3, 8]: 49.8 ± 7.8 min; MRT inf [3, 8]: 49.8 ± 7.8 min; half-life [3, 8]: 31.8 ± 1.2 min; Vd/F [3, 8]: 2.76 ± 1.67 L/kg

Source: article PMC9343874, “Comparative Pharmacokinetics of Cinobufacini Capsule and Injection by UPLC-MS/MS” (Frontiers in Pharmacology, 2022)
